The source of these data is the NIST ThermoML archive (doi:10.1021/je700088n).

Structures are written as SMILES. Numbers after ± are expanded uncertainties.

The conditions of data set [1]: Crystal; for Normal melting temperature: DTA; for mass density: 298.1 K, 101.33 kPa, digital densimeter.
Data set [2] can be described thus: Molar enthalpy of transition or fusion. Conditions: Crystal; DSC.

As for `Cc1ccc(C)c2ccccc12` [1,4-dimethylnaphthalene], the Normal melting temperature in data set [1] is 6.00 ± 0.5 °C. In addition, the “Molar enthalpy of transition or fusion” value in data set [2] stood at 2.53 ± 0.0884 kcal/mol.

For `Cc1cccc2c(C)cccc12` [1,5-dimethylnaphthalene], the Normal melting temperature in data set [1] came to 82.00 ± 0.5 °C. Also, the “Molar enthalpy of transition or fusion” value in data set [2] was determined as 4.78 ± 0.143 kcal/mol.

Turning to `Cc1ccc2c(C)cccc2c1` [1,6-dimethylnaphthalene], the Normal melting temperature in data set [1] is -16.20 ± 0.5 °C. The “Molar enthalpy of transition or fusion” value in data set [2] is 2.03 ± 0.0741 kcal/mol.

As to `Cc1cccc2cccc(C)c12` [1,8-dimethylnaphthalene], in data set [1], the Normal melting temperature came to 65.00 ± 0.5 °C. In data set [2], the “Molar enthalpy of transition or fusion” value came out at 4.43 ± 0.134 kcal/mol.

Turning to `Cc1cccc2ccccc12` [1-methylnaphthalene], the Normal melting temperature in data set [1] was -30.9 ± 0.5 °C.

For orientation: mass density means the mass of a sample divided by its volume. For `Cc1cc2ccccc2cc1C` [2,3-dimethylnaphthalene], in data set [1], the mass density was 1012 ± 10 kg/m3 and the Normal melting temperature worked out at 104.00 ± 0.5 °C. For the same molecule, in data set [2], the “Molar enthalpy of transition or fusion” value was determined as 5.73 ± 0.167 kcal/mol.

Regarding `Cc1ccc2cc(C)ccc2c1` [2,6-dimethylnaphthalene], in data set [1], the mass density turned out to be 1021 ± 10 kg/m3 and the Normal melting temperature amounted to 112.00 ± 0.5 °C. The “Molar enthalpy of transition or fusion” value in data set [2] worked out at 6.05 ± 0.174 kcal/mol.

In the case of `Cc1ccc2ccc(C)cc2c1` [2,7-dimethylnaphthalene], in data set [1], the mass density worked out at 1010 ± 10 kg/m3 and the Normal melting temperature came to 97.00 ± 0.5 °C. In addition, the “Molar enthalpy of transition or fusion” value in data set [2] was determined as 5.31 ± 0.158 kcal/mol.

On to `Cc1ccc2ccccc2c1` [2-methylnaphthalene], for which the Normal melting temperature in data set [1] is 34.70 ± 0.5 °C.
